Reference: patent US7537760B2, “Monoclonal antibodies recognizing BAG3 protein sequences and their use in diagnostic and therapy of cell death-involving diseases” (priority 2001, dated 2009)

How the values were obtained:
[1] = system: cells of the human osteosarcoma line SAOS; test: Apoptosis in SAOS cells, cell permeabilization and PI staining; format: cell-based; details: 72 h; for % of apoptosis, incubation Etoposide (5 microM) / % of apoptosis, incubation Topotecan (40 ng/ml): without or with oligo 5 microM
Method: Cells of the SAOS line were incubated for 72 h in 10% FCS-RPMI without or with chemotherapeutic compounds (etoposide or topotecan) and/or the BAG3 antisense or control nonsense phosphorothioate oligodeoxynucleotides (5 microM) described in the text. Then cell apoptosis was analysed by cell permeabilization and PI staining according to ref.11.

[2] = system: BAG3; test: BAG3 mRNA (PCR) and protein (immunofluorescence) levels in primary B-CLL cells; format: cell-based, human
Method: FIG. 1—Expression of BAG3 mRNA and protein in primary cells from leukemia patients. Leukemic cells were isolated from B-CLL patients' peripheral blood specimens by centrifugation through Ficoll-Hypaque (13) and cultured for 24 hours in RPMI 1640 medium supplemented with 10% fetal calf serum (10% FCS-RPMI), without or with fludarabine phosphate. A panel: cell mRNA was the extracted and BAG3 expression was verified by PCR (GAPDH expression is shown for comparative purpose); B panel: cells were permeabilised and analysed by indirect immunofluorescence with the polyclonal antibody AC-BAG3-1. A=control rabbit Ig; b=cells incubated with control medium and analysed with anti-BAG3; c=cells incubated with fludarabine and analysed with anti-BAG3.
FIG. 2—Downmodulation of BAG3 protein levels by anti-BAG3 antisense oligodeoxynucleotides. Leukemic cells were isolated from B-CLL patients' peripheral blood specimens by centrifugation through Ficoll-Hypaque and cultured for 20 hours without (b) or with BAG3 antisense (b+α) or control nonsense (b+ν) phosphorothioate oligodeoxynucleotides (5 microM) described in the text. Then cells were permeabilised and analysed by indirect immunofluorescence with the polyclonal antibody AC-BAG3-1. a=control rabbit Ig.

[3] = molecular target: T1, BAG3 protein (Homo sapiens, UniProt O95817); test: BAG3 protein in ALL cells, Western blot and intracellular immunofluorescence; format: cell-based; details: oligo 5 microM, 24 hr
T1 construct: endogenous in cells; host or cells: primary leukemic cells from patients' peripheral blood (B-CLL, acute leukemia)
Method: FIG. 11 Expression of BAG3 protein in ALL cells and its downmodulation by BAG3-specific antisense oligonucleotides. A—ALL cells (1×10^6/ml) were cultured in 10% FCS-RPMI without or with control nonsense ([…], SEQ ID NO 12, nonsense 1) or BAG3-specific antisense ([…], SEQ ID NO 9, antisense 1) oligonucleotides (5 microM) for 24 hr. Then cell lysates were obtained and analyzed in Western blot with anti-BAG3 (AC-BAG3-1; analogous results were obtained With AC-BAG3-2) or anti-tubulin antibodies. B—ALL cells (1×10^6/ml) were cultured in 10% FCS-RPMI without or with BAG3-specific antisense ([…], SEQ ID NO 9, antisense 1) (a) or control nonsense ([…], SEQ ID NO 12, nonsense 1) (b) oligonucleotides (5 microM) for 24 hr. Then the cells were analyzed by intracellular immunofluorescence with the anti-BAG3 polyclonal antibody. Negative controls with a control rabbit antibody preparation are shown on the left in a and b.

T1 sequence (O95817 whole entry): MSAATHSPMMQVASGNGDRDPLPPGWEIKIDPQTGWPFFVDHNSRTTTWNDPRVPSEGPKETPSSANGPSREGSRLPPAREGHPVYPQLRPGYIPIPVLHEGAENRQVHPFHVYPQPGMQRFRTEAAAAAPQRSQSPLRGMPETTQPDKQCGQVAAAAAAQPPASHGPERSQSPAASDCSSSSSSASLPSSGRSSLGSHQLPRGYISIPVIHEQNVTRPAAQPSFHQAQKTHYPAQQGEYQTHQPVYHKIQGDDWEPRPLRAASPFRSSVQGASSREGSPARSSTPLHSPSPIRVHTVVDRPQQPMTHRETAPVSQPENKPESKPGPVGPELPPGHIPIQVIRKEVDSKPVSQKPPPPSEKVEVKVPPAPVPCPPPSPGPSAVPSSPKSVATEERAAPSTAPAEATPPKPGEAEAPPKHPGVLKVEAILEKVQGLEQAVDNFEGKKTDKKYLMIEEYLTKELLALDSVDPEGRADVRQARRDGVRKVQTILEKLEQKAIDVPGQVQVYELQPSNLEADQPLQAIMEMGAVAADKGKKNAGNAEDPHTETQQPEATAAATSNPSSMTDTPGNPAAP

With `COc1cc([C@@H]2c3cc4c(cc3[C@@H](O[C@@H]3O[C@@H]5CO[C@@H](C)O[C@H]5[C@H](O)[C@H]3O)[C@H]3COC(=O)[C@H]23)OCO4)cc(OC)c1O` [Etoposide, etoposide] the “% of apoptosis, incubation Etoposide (5 microM)” value [1] was 38.32%.
In the case of `CC[C@@]1(O)C(=O)OCc2c1cc1n(c2=O)Cc2cc3c(CN(C)C)c(O)ccc3nc2-1` [Topotecan, topotecan], the “% of apoptosis, incubation Topotecan (40 ng/ml)” value [1] is reported as 36.84%.
For `Nc1nc(F)nc2c1ncn2[C@@H]1O[C@H](COP(=O)(O)O)[C@@H](O)[C@@H]1O` [fludarabine, fludarabine phosphate], the “BAG3 mRNA levels” value ([2]; 24 hours, PCR) was “enhanced” and the BAG3 protein levels ([2]; immunofluorescence, 11 of 13 BAG3-positive specimens (18 examined)) was “upregulated”.
“antisense 1: BAG3 antisense phosphorothioate oligodeoxynucleotide TGCATCATGGGCGAGTGGGTGGCGG (antisense TGCATCATGGGCGAGTGGGTGGCGG; DNA, all phosphorothioate, methylation of C not given here; listed as Homo sapiens)” was tested, and the “BAG3 protein in ALL cells” value [3] was “downmodulation”.
With “control nonsense: control nonsense phosphorothioate oligodeoxynucleotides described in the text; which of nonsense 1-3 is not stated (DNA TTATATTCTATTATATTTATGAACTCC; DNA, all phosphorothioate, methylation of C not given here; listed as Homo sapiens)” the “% of apoptosis, incubation Etoposide (5 microM)” value [1] was 45.40%, the “% of apoptosis, incubation Topotecan (40 ng/ml)” value [1] was 41.60% and the “% of apoptosis, incubation control medium” value ([1]; oligo 5 microM, no chemotherapeutic compound) was 25.84%.
